Read-outs that look alike come from different tables or passages of the source.
What was measured:
[1] = system: hemopoietic stem cells (bone marrow cells); experiment: CSF-induced proliferation of hemopoietic stem cells; format: cell-based, mice; conditions: Mus musculus, Bone marrow cell, 168 h, read-out: IC50, CSF-induced proliferation of hemopoietic stem cells, mouse bone marrow cells, recombinant murine GM-CSF, 7 days, colony count
Procedure: Bone marrow cells are flushed out of the femur of mice. 10^5 cells are incubated in McCoy 5A medium (0.3% agar) together with recombinant murine GM-CSF (Genzyme; parent cell colony formation) and the substances (10^−4 to 100 μg/ml) at 37° C. and 7% CO2. 7 days later, the colonies (<50 cells) and clusters (17–50 cells) are counted.

[2] = molecular target: T1, αvβ3 receptor (αvβ3 from human A375 cells) (Homo sapiens, UniProt P05106+P06756); experiment: αvβ3 binding test (echistatin displacement, WGA SPA beads)
T1 construct: αvβ3 from human A375 cells was purified analogously to a procedure which was described by Wong et al; endogenous in cells; host or cells: human A375 cells; the receptor was purified from the cells and used detergent-solubilised (n-octyl-glucopyranoside)
Procedure: αvβ3 from human A375 cells was purified analogously to a procedure which was described by Wong et al. (Molecular Pharmacology, 50, 529–537 (1996)). In each case, 10 μl of αvβ3 (5 ng) in TBS pH 7.6, 2 mM CaCl2, 1 mM MgCl2, 1% n-octyl-glucopyranoside (Sigma); 10 μl of test substance in TBS pH 7.6, 0.1% DMSO and 45 μl of TBS pH 7.6, 2 mM CaCl2, 1 mM MgCl2, 1 mM MnCl2 were incubated at room temperature for 1 h. In each case, 25 μl of WGA SPA beads (Amersham, 4 mg/ml) and 10 μl of echistatin ([…], Amersham, chloramine-T labelled) were then added. After 16 hours at room temperature, the samples were measured in a scintillation measuring apparatus (Wallac 1450).

B16F10 = experiment: Growth inhibition test (MTT), cytotoxic action on tumour cell lines; format: cell-based; conditions: Mus musculus, B16-F10, 144 h, read-out: IC50 values of the cytotoxic action on tumour cell lines, B16F10
Procedure: (§1) The human large intestine cell lines SW 480 and HT29 (ATCC No. CCL 228 and HTB38), the human breast cell lines MDA-MB 231, MCF-7 and BT20 (ATCC No. HTB-, 26, 22 and 23) and the mouse melanoma cell line B16F 10 (CRL 6475) were grown to confluence in Roux dishes in RPMI 1640 medium with addition of 10% FCS. They were then trypsinized and taken up in RPMI plus 10% FCS to a cell count of 50,000 cells or, for B16F10, 20,000 cells per ml. 100 μl of cell suspension/well were added to a 96 microwell plate and incubated at 37° C. for 1 day in a CO2 incubator. A further 100 μl of RPMI medium and 1 μl of DMSO were then added with the test substances. The growth was checked after day 6. For this, 25 μl of MTT solution (3-(4,5-dimethylthiazol-2-yl)-2,5-diphenyltetrazolium bromide) was added to each well at a starting concentration of 5 mg/ml of H2O. The plate was incubated at 37° C. for 5 hours in a CO2 incubator. The medium was then aspirated and 100 μl of i-propanol/well were added. After shaking with 100 μl of H2O for 30 min, the extinction was measured at 595-nm using a Multiplate Reader (BIO-RAD 3550-UV).
(§2) The cytostatic action is indicated in Table 2 as an IC50 value, in each case for the individual cell lines.

MDA-MB 231 = experiment: as above; format: cell-based; conditions: Homo sapiens, MDA-MB-231, 144 h, read-out: IC50 values of the cytotoxic action on tumour cell lines, MDA-MB 231
Procedure: as §1, §2

SW480 = experiment: as above; format: cell-based; conditions: Homo sapiens, SW480, 144 h, read-out: IC50 values of the cytotoxic action on tumour cell lines, SW480
Procedure: as §1, §2

MCF7 = experiment: as above; format: cell-based; conditions: Homo sapiens, MCF7, 144 h, read-out: IC50 values of the cytotoxic action on tumour cell lines, MCF7
Procedure: as §1, §2

BT20 = experiment: as above; format: cell-based; conditions: Homo sapiens, BT-20, 144 h, read-out: IC50 values of the cytotoxic action on tumour cell lines, BT20
Procedure: as §1, §2

HT 29 = experiment: as above; format: cell-based; conditions: Homo sapiens, HT-29, 144 h, read-out: IC50 values of the cytotoxic action on tumour cell lines, HT 29
Procedure: as §1, §2

[3] = system: human breast cancer xenograft MX1; experiment: In-vivo inhibition of tumour growth using a nude mouse model; design: species or system athymic nude mice (NMRI nu/nu strain); conditions: subcutaneous MX1 xenograft in nude mice; 40 mg/kg given on day 1–3 and 14–16; T/C in percent
Source text: In all in-vivo experiments for investigating the inhibition of tumour growth, athymic nude mice (NMRI nu/nu strain) were used. The tumour was developed by serial passage in nude mice. The human origin of the tumour was confirmed by isoenzymatic and immunohistochemical methods.
The tumour was implanted subcutaneously in both flanks of nu/nu nude mice 6 to 8 weeks old. The treatment was started, depending on the doubling time, as soon as the tumours had reached a diameter of 5–7 mm. The mice were assigned to the treatment group or the control group (5 mice per group having 8–10 assessable tumours) by randomization. The individual tumours of the control group all grew progressively.
The size of the tumours was measured in two dimensions by means of a slide gauge. The tumour volume, which correlated well with the cell count, was then used for all assessments. The volume was calculated according to the formula “length×breadth×breadth/2” ([a×b^2]/2, a and b represent two diameters arranged at right angles).
The values of the relative tumour volume (RTV) were calculated for each individual tumour by dividing the tumour size on day X with the tumour size on day 0 (at the time of randomization). […]
The inhibition of the increase of the tumour volume (tumour volume of the test group/control group, T/C, in percent) was the final measured value. […]

T1 sequence (P06756 31-889 limits assumed): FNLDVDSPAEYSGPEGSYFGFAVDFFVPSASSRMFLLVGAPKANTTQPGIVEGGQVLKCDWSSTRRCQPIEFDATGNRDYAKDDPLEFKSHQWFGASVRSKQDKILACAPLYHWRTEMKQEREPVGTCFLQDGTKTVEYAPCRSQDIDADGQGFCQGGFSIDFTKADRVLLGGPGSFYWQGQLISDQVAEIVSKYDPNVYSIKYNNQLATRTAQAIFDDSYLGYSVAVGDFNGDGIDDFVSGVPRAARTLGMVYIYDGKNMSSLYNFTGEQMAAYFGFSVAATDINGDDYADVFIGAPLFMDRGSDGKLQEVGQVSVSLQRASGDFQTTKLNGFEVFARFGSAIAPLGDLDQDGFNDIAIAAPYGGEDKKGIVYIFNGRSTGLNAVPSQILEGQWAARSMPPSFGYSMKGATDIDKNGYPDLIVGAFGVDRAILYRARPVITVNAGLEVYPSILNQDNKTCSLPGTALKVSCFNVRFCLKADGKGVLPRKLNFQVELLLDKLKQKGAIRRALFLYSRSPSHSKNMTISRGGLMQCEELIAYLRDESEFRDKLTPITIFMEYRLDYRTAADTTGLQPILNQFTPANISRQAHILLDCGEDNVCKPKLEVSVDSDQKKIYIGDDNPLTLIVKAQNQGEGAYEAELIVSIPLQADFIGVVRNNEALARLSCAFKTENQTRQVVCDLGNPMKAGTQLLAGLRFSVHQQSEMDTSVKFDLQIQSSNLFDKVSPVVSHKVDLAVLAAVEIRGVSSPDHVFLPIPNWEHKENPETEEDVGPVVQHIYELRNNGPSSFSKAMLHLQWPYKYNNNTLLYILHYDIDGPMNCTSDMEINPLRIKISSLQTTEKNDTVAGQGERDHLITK
T1 sequence (P06756 891-1048 partner limits assumed): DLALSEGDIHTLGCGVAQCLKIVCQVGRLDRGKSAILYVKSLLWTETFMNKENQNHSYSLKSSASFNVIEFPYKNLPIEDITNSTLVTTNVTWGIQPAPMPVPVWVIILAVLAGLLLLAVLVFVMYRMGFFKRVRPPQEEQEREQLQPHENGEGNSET
T1 sequence (P05106 27-788): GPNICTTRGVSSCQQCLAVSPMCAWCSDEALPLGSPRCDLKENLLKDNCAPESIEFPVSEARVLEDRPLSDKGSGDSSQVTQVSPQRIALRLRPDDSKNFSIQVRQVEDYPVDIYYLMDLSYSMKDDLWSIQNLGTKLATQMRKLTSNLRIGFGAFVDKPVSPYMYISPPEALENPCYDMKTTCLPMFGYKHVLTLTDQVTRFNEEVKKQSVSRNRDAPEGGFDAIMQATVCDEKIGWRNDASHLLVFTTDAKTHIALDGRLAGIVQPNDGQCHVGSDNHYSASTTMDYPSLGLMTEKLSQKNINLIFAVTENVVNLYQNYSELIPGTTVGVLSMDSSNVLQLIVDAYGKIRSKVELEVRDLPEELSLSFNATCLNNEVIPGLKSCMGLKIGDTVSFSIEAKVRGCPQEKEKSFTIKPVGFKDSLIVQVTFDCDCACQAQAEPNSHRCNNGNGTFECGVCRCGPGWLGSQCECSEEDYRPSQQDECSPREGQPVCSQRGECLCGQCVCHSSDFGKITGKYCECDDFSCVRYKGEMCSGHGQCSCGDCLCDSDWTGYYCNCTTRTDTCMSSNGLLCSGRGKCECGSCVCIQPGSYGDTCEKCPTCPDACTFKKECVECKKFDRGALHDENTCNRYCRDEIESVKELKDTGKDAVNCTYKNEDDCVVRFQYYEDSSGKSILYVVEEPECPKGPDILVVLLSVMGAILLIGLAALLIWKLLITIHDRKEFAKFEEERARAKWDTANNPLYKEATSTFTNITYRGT

CCCNC(=O)Nc1cccc(S(=O)(=O)Nc2cccc(C(CC(=O)O)NC(=O)Nc3ccc(NC(=S)N[C@@H](Cc4c[nH]cn4)C(=O)N[C@H](C(=O)O[C@]4(CC)C(=O)OCc5c4cc4n(c5=O)Cc5cc6ccccc6nc5-4)C(C)C)cc3)c2)c1 (stereo partly drawn) [Example 3.13]
IC50 [1]: 0.04 µg/mL | IC50 [2]: 14 nM | IC50 (B16F10): 200 nM | IC50 (MDA-MB 231): 200 nM | IC50 (SW480): 200 nM | IC50 (MCF7): 100 nM | IC50 (BT20): 150 nM | IC50 (HT 29): 90 nM

CC[C@@]1(OC(=O)[C@@H](NC(=O)[C@H](Cc2cnc[nH]2)NC(=S)Nc2cccc(C(CC(=O)O)NS(=O)(=O)c3ccc(-c4cccc(NC(=O)Nc5nc6ccccc6[nH]5)c4)cc3)c2)C(C)C)C(=O)OCc2c1cc1n(c2=O)Cc2cc3ccccc3nc2-1 (stereo partly drawn) [Example 3.8]
IC50 [1]: 0.025 µg/mL | IC50 [2]: 25 nM | IC50 (B16F10): 800 nM | IC50 (MDA-MB 231): 200 nM | IC50 (SW480): 350 nM | IC50 (MCF7): 200 nM | IC50 (BT20): 400 nM | IC50 (HT 29): 200 nM | optimal T/C (tumour volume of the test group/control group) [3]: 15.9

CC[C@@]1(OC(=O)[C@@H](NC(=O)[C@H](Cc2c[nH]cn2)NC(=S)Nc2ccc(NC(=O)NC(CC(=O)O)c3cccc(NS(=O)(=O)c4cccc(NC(=N)N)c4)c3)cc2)C(C)C)C(=O)OCc2c1cc1n(c2=O)Cc2cc3ccccc3nc2-1 (stereo partly drawn) [Example 3.5]
IC50 [1]: 0.02 µg/mL | IC50 [2]: 36 nM | IC50 (B16F10): 900 nM | IC50 (MDA-MB 231): 150 nM | IC50 (SW480): 200 nM | IC50 (MCF7): 150 nM | IC50 (BT20): 500 nM | IC50 (HT 29): 150 nM

CCCNC(=O)Nc1cccc(S(=O)(=O)Nc2cccc(C(CC(=O)O)NC(=O)CCCC(=O)N[C@@H](CC(C)C)C(=O)NCC(=O)N[C@@H](CC(C)C)C(=O)O[C@]3(CC)C(=O)OCc4c3cc3n(c4=O)Cc4cc5ccccc5nc4-3)c2)c1 (stereo partly drawn) [Example 3.21]
IC50 [1]: 0.08 µg/mL | IC50 ([2]; αvβ3 purified from human A375 cells, labelled echistatin, read-out: IC50 values of the binding to the αvβ3 receptor): 549 nM
